Results from publication PMC11311138, “Design of Promising Thiazoloindazole-Based Acetylcholinesterase Inhibitors Guided by Molecular Docking and Experimental Insights” (ACS Chemical Neuroscience, 2024).

How the values were obtained:
[1] = target: Electrophorus electricus AChE (eeAChE) (Electrophorus electricus, UniProt O42275); assay: biochemical; assay type: biochemical; conditions: pH 8, 37 °C, triplicate
equine serum BuChE = equine serum BuChE (Equus caballus, UniProt P81908); assay: biochemical; conditions: pH 8, 37 °C, triplicate
Chain of equine serum BuChE (P81908 whole entry): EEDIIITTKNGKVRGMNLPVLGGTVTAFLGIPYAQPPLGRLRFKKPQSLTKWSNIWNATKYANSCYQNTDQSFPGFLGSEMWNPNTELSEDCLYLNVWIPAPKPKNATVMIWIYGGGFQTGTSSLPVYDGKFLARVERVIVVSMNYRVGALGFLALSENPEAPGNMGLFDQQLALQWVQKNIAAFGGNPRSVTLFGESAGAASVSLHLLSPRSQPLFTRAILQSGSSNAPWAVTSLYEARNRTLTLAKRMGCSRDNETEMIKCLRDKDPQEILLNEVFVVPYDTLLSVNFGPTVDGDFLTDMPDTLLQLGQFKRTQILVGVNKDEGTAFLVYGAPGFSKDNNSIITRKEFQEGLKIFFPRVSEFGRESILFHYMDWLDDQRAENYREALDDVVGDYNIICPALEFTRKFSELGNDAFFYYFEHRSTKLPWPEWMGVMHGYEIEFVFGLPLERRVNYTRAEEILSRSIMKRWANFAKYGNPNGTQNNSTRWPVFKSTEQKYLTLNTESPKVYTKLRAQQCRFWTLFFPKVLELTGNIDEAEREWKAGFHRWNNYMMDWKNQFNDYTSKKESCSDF

Chain of Electrophorus electricus AChE (eeAChE) (O42275 24-633): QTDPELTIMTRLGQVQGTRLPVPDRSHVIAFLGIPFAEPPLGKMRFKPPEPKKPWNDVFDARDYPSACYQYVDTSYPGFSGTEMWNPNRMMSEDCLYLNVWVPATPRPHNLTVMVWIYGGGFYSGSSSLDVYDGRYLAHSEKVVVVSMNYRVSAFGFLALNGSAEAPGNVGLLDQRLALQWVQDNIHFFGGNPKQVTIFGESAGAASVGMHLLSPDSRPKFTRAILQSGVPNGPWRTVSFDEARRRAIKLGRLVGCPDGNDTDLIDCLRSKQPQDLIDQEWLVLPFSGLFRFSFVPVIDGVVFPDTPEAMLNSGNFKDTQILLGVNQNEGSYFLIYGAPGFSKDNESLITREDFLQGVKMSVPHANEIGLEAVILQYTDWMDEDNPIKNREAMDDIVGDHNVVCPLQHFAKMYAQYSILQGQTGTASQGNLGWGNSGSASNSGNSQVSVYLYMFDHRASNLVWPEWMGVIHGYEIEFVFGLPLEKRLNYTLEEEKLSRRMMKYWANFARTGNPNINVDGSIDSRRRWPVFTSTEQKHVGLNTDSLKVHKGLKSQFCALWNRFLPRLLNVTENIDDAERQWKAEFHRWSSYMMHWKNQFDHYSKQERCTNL

Compound	IC50 [1] [µM]	IC50 (equine serum BuChE) [µM]	AChE IC50 [1]
Cn1nc(Cl)c2c3sc(NC(=O)CN=[N+]=[N-])nc3ccc21 [7c, 2-Azido-N-(8-chloro-6-methyl-6H-thiazolo[5,4-e]indazol-2-yl)acetamide]	2.26 ± 0.09	> 50	–
CCn1ncc2c3sc(NC(=O)Cn4c5ccccc5c5ccccc54)nc3ccc21 [TI58b, 2-(9H-carbazol-9-yl)-N-(6-ethyl-6H-thiazolo[5,4-e]indazol-2-yl)acetamide]	> 50	> 50	did not experimentally show any activity against AChE
Cn1ncc2c3sc(N)nc3ccc21 [5a, 6-Methyl-6H-thiazolo[5,4-e]indazol-2-amine]	> 50	> 50	–
CCn1ncc2ccc3nc(N)sc3c21 [5d, 1-Ethyl-1H-thiazolo[4,5-g]indazol-7-amine]	> 50	> 50	–
Cn1nc(Cl)c2c3sc(NC(=O)Cn4c5ccccc5c5ccccc54)nc3ccc21 [TI58c, 2-(9H-carbazol-9-yl)-N-(8-chloro-6-methyl-6H-thiazolo[5,4-e]indazol-2-yl)acetamide]	> 50	> 50	–
Cn1ncc2ccc3nc(N)sc3c21 [5c, 1-Methyl-1H-thiazolo[4,5-g]indazol-7-amine]	> 50	> 50	–
Cn1nc(Cl)c2c3sc(N)nc3ccc21 [5e, 8-Chloro-6-methyl-6H-thiazolo[5,4-e]indazol-2-amine]	> 50	> 50	–
Cn1ncc2c3sc(NC(=O)Cn4cc(-c5cc(C(F)(F)F)cc(C(F)(F)F)c5)nn4)nc3ccc21 [TI45a, 2-(4-(3,5-bis(Trifluoromethyl)phenyl)-1H-1,2,3-triazol-1-yl)-N-(6-methyl-6H-thiazolo[5,4-e]indazol-2-yl)acetamide]	> 50	> 50	–
Cn1ncc2c3sc(NC(=O)CN=[N+]=[N-])nc3ccc21 [7a, 2-Azido-N-(6-methyl-6H-thiazolo[5,4-e]indazol-2-yl)acetamide]	> 50	> 50	–
CCn1ncc2c3sc(NC(=O)CCl)nc3ccc21 [6b, 2-Chloro-N-(6-ethyl-6H-thiazolo[5,4-e]indazol-2-yl)acetamide]	13.2 ± 2.71	> 50	–
Cn1nc(Cl)c2c3sc(NC(=O)Cn4cc(-c5cc(C(F)(F)F)cc(C(F)(F)F)c5)nn4)nc3ccc21 [TI45c, 2-(4-(3,5-bis(Trifluoromethyl)phenyl)-1H-1,2,3-triazol-1-yl)-N-(8-chloro-6-methyl-6H-thiazolo[5,4-e]indazol-2-yl)acetamide]	> 50	> 50	–
CCn1ncc2c3sc(N)nc3ccc21 [5b, 6-Ethyl-6H-thiazolo[5,4-e]indazol-2-amine]	> 50	> 50	–
Cn1ncc2c3sc(NC(=O)Cn4c5ccccc5c5ccccc54)nc3ccc21 [TI58a, 2-(9H-carbazol-9-yl)-N-(6-methyl-6H-thiazolo[5,4-e]indazol-2-yl)acetamide]	> 50	> 50	–
Cn1ncc2c3sc(NC(=O)CCl)nc3ccc21 [6a, 2-Chloro-N-(6-methyl-6H-thiazolo[5,4-e]indazol-2-yl)acetamide]	14.3 ± 2.62	> 50	–
CCn1ncc2c3sc(NC(=O)Cn4cc(-c5cc(C(F)(F)F)cc(C(F)(F)F)c5)nn4)nc3ccc21 [TI45b, 2-(4-(3,5-bis(Trifluoromethyl)phenyl)-1H-1,2,3-triazol-1-yl)-N-(6-ethyl-6H-thiazolo[5,4-e]indazol-2-yl)acetamide]	0.071 ± 0.014	> 50	–
Cn1nc(Cl)c2c3sc(NC(=O)CCl)nc3ccc21 [6c, 2-Chloro-N-(8-chloro-6-methyl-6H-thiazolo[5,4-e]indazol-2-yl)acetamide]	> 25	> 50	–
CCn1ncc2c3sc(NC(=O)CN=[N+]=[N-])nc3ccc21 [7b, 2-Azido-N-(6-ethyl-6H-thiazolo[5,4-e]indazol-2-yl)acetamide]	0.54 ± 0.11	> 50	–
